Assay results from ChEMBL document CHEMBL5214978, “Identification of 1,4-Benzodiazepine-2,5-dione Derivatives as Potential Protein Synthesis Inhibitors with Highly Potent Anticancer Activity” (J Med Chem, 2022).

Key:
[1] = tested on: A498; assay: Anticancer activity against human A498 cells assessed as cell growth inhibition; assay type: functional, cell-based
[2] = target: T1, Nuclear receptor subfamily 6 group A member 1 (Homo sapiens, UniProt Q15406); assay: Antagonist activity at GCNF (unknown origin) by luciferase reporter gene assay
T1 sequence (Q15406 whole entry): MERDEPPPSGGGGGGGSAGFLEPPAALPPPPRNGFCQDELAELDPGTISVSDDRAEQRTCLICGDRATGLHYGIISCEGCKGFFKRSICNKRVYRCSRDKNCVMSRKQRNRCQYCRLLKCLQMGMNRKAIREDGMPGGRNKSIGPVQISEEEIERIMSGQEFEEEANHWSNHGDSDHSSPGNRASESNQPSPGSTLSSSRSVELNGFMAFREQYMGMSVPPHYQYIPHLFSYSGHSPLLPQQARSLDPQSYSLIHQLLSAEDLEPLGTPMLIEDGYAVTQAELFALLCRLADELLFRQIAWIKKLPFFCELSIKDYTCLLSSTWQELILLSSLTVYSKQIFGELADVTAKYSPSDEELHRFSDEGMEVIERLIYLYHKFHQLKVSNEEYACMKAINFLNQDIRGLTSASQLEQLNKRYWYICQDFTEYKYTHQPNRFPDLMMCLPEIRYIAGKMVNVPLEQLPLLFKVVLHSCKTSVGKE

[3] = tested on: NCI-H661; assay: Anticancer activity against human NCI-H661 cells assessed as cell growth inhibition; assay type: functional, cell-based
[4] = tested on: MCF7; assay: Anticancer activity against human MCF7 cells assessed as cell growth inhibition
[5] = tested on: MDA-MB-231; assay: Anticancer activity against human MDA-MB-231 cells assessed as cell growth inhibition
[6] = tested on: SF-295; assay: Anticancer activity against human SF-295 cells assessed as cell growth inhibition measured after 48 hrs by SRB assay; assay type: functional
[7] = tested on: A549; assay: Anticancer activity against human A549 cells assessed as cell growth inhibition measured after 48 hrs by SRB assay; assay type: functional
[8] = tested on: 786-0; assay: Anticancer activity against human 786-0 cells assessed as cell growth inhibition measured after 48 hrs by SRB assay; assay type: functional
[9] = tested on: Panel NCI-60 (60 carcinoma cell lines); assay: Anticancer activity against human Panel NCI-60 (60 carcinoma cell lines) line assessed as cell growth inhibition measured after 48 hrs by SRB assay; assay type: functional
[10] = tested on: HCT-116; assay: Anticancer activity against human HCT-116 cells assessed as cell growth inhibition measured after 48 hrs by SRB assay; assay type: functional
[11] = tested on: LOX IMVI; assay: Anticancer activity against human LOX IMVI cells assessed as cell growth inhibition measured after 48 hrs by SRB assay; assay type: functional
[12] = tested on: Panel NCI-60 (60 carcinoma cell lines); assay: Anticancer activity against human Panel NCI-60 (60 carcinoma cell lines) cells assessed as cell growth inhibition; assay type: functional

Structure (SMILES) | EC50 [2] [µM] | IC50 [3] [µM] | IC50 [4] [µM] | IC50 [5] [µM] | GI50 [7] [µM] | GI50 [8] [µM] | GI50 [10] [µM] | IC50 [1] [µM] | GI50 [6] [µM] | GI50 [9] [µM] | GI50 [11] [µM] | GI50 [1] [µM] | GI50 [12] [µM]
O=C1Nc2ccc(Br)cc2C(=O)N(Cc2ccccc2Sc2ccc(Cl)cc2)[C@@H]1Cc1ccccc1 | < 7 |  |  |  |  |  |  | 5 |  |  |  |  | 
O=C(CCCCCN1C(=O)c2ccccc2N(Cc2ccccc2)C(=O)[C@@H]1Cc1ccccc1)NO |  | 6 |  |  |  |  |  |  |  |  |  |  | 
C[C@H](c1ccc(Cl)cc1)N1C(=O)c2cc(I)ccc2N(CCCCC(=O)O)C(=O)[C@@H]1c1ccc(Cl)cc1 |  |  | 7 | 67 |  |  |  |  |  |  |  |  | 
CCN(CC)C(=O)C[C@@H]1NC(=O)c2cc(Oc3cc(C)cc(C)c3)c(N(C)C(=O)c3cc(OC)c(OC)c(OC)c3)cc2NC1=O |  |  |  |  | > 50 | > 50 | 50 |  | > 50 | > 50 | > 50 |  | 
O=C1Nc2ccccc2C(=O)N2C=C(c3ccc(Br)cc3)C[C@@H]12 |  |  |  |  |  |  |  |  |  |  |  | 0.51 | 7.41
COC(=O)C[C@@H]1NC(=O)c2cc(Oc3cc(C)cc(C)c3)c(NCc3cc(OC)c(OC)c(OC)c3)cc2NC1=O |  |  |  |  | > 50 | > 50 | > 50 |  | > 50 | > 50 | > 50 |  | 
COC(=O)C[C@@H]1NC(=O)c2cc(Oc3ccccc3)c(NC(=O)c3cc(OC)c(OC)c(OC)c3)cc2NC1=O |  |  |  |  | > 50 | > 50 | > 50 |  | > 50 | > 50 | > 50 |  | 
COC(=O)C[C@@H]1NC(=O)c2cc(Oc3ccc(F)cc3)c(NC(=O)c3cc(OC)c(OC)c(OC)c3)cc2NC1=O |  |  |  |  | > 50 | > 50 | > 50 |  | > 50 | > 50 | > 50 |  | 
COC(=O)C[C@@H]1NC(=O)c2cc(-c3cc(C)cc(C)c3)c(NC(=O)c3cc(OC)c(OC)c(OC)c3)cc2NC1=O |  |  |  |  | > 50 | > 50 | > 50 |  | > 50 | > 50 | > 50 |  | 
COC(=O)C[C@@H]1NC(=O)c2cc(Oc3ccc(C(F)(F)F)cc3)c(NC(=O)c3cc(OC)c(OC)c(OC)c3)cc2NC1=O |  |  |  |  | > 50 | > 50 | > 50 |  | > 50 | > 50 | > 50 |  | 

The remaining molecules from weak to strong by GI50 [7], led by results:

EC50 [2] [µM] | IC50 [3] [µM] | IC50 [4] [µM] | IC50 [5] [µM] | GI50 [7] [µM] | GI50 [8] [µM] | GI50 [10] [µM] | Structure (SMILES) | IC50 [1] [µM] | GI50 [6] [µM] | GI50 [9] [µM] | GI50 [11] [µM] | GI50 [1] [µM] | GI50 [12] [µM]
 |  |  |  | 3.41 | 14.9 | 5.25 | COC(=O)C[C@@H]1NC(=O)c2cc(Oc3cccc(N(C)C)c3)c(NC(=O)c3cc(OC)c(OC)c(OC)c3)cc2NC1=O |  | 3.09 | 4.68 | 5.26 |  | 
 |  |  |  | 2.09 | 7.45 | 4.01 | COC(=O)C[C@@H]1NC(=O)c2cc(OCCc3cc(C)cc(C)c3)c(NC(=O)c3cc(OC)c(OC)c(OC)c3)cc2NC1=O |  | 1.61 | 3.02 | 5.15 |  | 
 |  |  |  | 1.17 | 1.28 | 1.34 | COC(=O)C[C@@H]1NC(=O)c2cc(Oc3cc(C)ccc3C)c(NC(=O)c3cc(OC)c(OC)c(OC)c3)cc2NC1=O |  | 0.96 | 1.35 | 1.36 |  | 
 |  |  |  | 0.27 | 0.66 | 0.33 | CCc1nc(C[C@@H]2NC(=O)c3cc(Oc4cc(C)cc(C)c4)c(NC(=O)c4cc(OC)c(OC)c(OC)c4)cc3NC2=O)no1 |  | 0.12 | 0.36 | 0.24 |  | 
 |  |  |  | 0.07 | 0.07 | 0.03 | COC(=O)C[C@@H]1NC(=O)c2cc(Oc3cc(C)cc(C)c3)c(NC(=O)c3cc(OC)c(OC)c(OC)c3)cc2NC1=O |  | 0.07 | 0.05 | 0.02 |  | 
 |  |  |  | 0.017 | 0.041 | 0.021 | CCN(CC)C(=O)C[C@H]1C(=O)Nc2cc(NC(=O)c3cc(OC)c(OC)c(OC)c3)c(Oc3cc(C)cc(C)c3)cc2C(=O)N1C |  | 0.01 | 0.023 | 0.018 |  | 
 |  |  |  | 0.009 | 0.01 | 0.013 | CCN(CC)C(=O)C[C@H]1C(=O)Nc2cc(NC(=O)c3cc(OC)c(OC)c(OC)c3Cl)c(Oc3cc(C)cc(C)c3)cc2C(=O)N1C |  | 0.012 | 0.017 | < 0.005 |  | 
